Here are results for 15 compounds from PubChem BioAssay (NCI).

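Test compounds were applied to cells in 96-well plates for 48 hours at 5 doses. TGI marks complete inhibition of growth.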

Some test systems named below: OVCAR-3 ovarian; PC-3 prostate; MDA-MB-231 breast; ACHN renal; M14 melanoma; OVCAR-5 ovarian; HS 578T breast; COLO 205 colon; NCI-H522 lung; SK-OV-3 ovarian.
Common to all, as to experiment: growth of human tumour cells (NCI), 48 h

As for `CCCCNC(=O)Cn1c2ccc(Br)cc2c2nc3ccccc3nc21`, the TGI in the test on OVCAR-3 ovarian, in the test with PC-3 prostate, in the test on MDA-MB-231 breast, in the test on ACHN renal, in the test on M14 melanoma and with OVCAR-5 ovarian was above 100 µM throughout. Besides, the TGI in the test with HS 578T breast and in the test with COLO 205 colon was above 100 µM each time.

Turning to `CC(=O)Oc1ccn2nc(C)c(Br)c2c1`, the TGI with OVCAR-3 ovarian is above 100 µM; with PC-3 prostate, above 86.5 µM; in the test on MDA-MB-231 breast it was above 100 µM; in the test with ACHN renal, above 100 µM; in the test with M14 melanoma, above 100 µM; in the test with OVCAR-5 ovarian it was above 100 µM. The TGI in the test with HS 578T breast is above 100 µM; with NCI-H522 lung, 97.1 µM; in the test with COLO 205 colon it was 75.5 µM.

Turning to `COc1ccc([C@]23CCC4(OCC(C)(C)CO4)[C@H]4CON(O[C@H](O[C@@H]5CCCCC5C(C)(C)c5ccccc5)C2)[C@@H]43)cc1OC` (some centres not stated), the TGI in the test on OVCAR-3 ovarian, in the test on PC-3 prostate, in the test with MDA-MB-231 breast, in the test on M14 melanoma, in the test on OVCAR-5 ovarian and with SK-OV-3 ovarian was above 100 µM each time. Further, the TGI with NCI-H522 lung and with COLO 205 colon was above 100 µM in each case.

For the compound `CCOC(=O)N1CCN(c2c(N)nc(C)[nH]c2=O)CC1`, the TGI with OVCAR-3 ovarian, with PC-3 prostate, in the test with MDA-MB-231 breast, with ACHN renal, in the test with M14 melanoma and in the test on OVCAR-5 ovarian was above 100 µM in each case. Also, the TGI with HS 578T breast, in the test with NCI-H522 lung and in the test on COLO 205 colon was above 100 µM in each case.

Consider `O=c1c2ccc(Cl)cc2oc2c(CNc3ccc(S(=O)(=O)Nc4ncccn4)cc3)cccc12`, for which the TGI with OVCAR-3 ovarian, with PC-3 prostate, in the test with MDA-MB-231 breast, with ACHN renal, in the test with M14 melanoma and in the test with OVCAR-5 ovarian was above 100 µM in each case. Further, the TGI in the test with SK-OV-3 ovarian, in the test on NCI-H522 lung and in the test on COLO 205 colon was above 100 µM throughout.

With `Cc1ccc(C)c(COCCOCn2cc(N3CCOCC3)c(=O)[nH]c2=O)c1`, the TGI in the test on PC-3 prostate, in the test with MDA-MB-231 breast, with ACHN renal, in the test on M14 melanoma, in the test with OVCAR-5 ovarian and with HS 578T breast was above 100 µM throughout. The TGI in the test on SK-OV-3 ovarian, in the test with NCI-H522 lung and in the test on COLO 205 colon was above 100 µM each time.

`CNC(=S)N1CCN(C(C)=O)C1=S`: the TGI was above 100 µM in the test on OVCAR-3 ovarian; 16 µM with MDA-MB-231 breast; above 100 µM in the test with ACHN renal; above 100 µM in the test on M14 melanoma; above 100 µM in the test on OVCAR-5 ovarian; 87.5 µM with HS 578T breast. Besides, the TGI with SK-OV-3 ovarian, in the test with NCI-H522 lung and with COLO 205 colon was above 100 µM in each case.

Take `CC[C@]12C=CCN3CCC4(c5cc([C@@]6(C(=O)OC)CC7CN(CCc8c6[nH]c6ccccc86)CC6CCCCC67)c(OC)cc5N(C)C4[C@](O)(C(=O)OC)C1OC(C)=O)[C@@H]32` (some centres not stated): the TGI is 0.393 µM in the test on PC-3 prostate; 0.0655 µM in the test on MDA-MB-231 breast; 11.6 µM with ACHN renal; 1.35 µM in the test with M14 melanoma; 0.0926 µM with OVCAR-5 ovarian; below 0.01 µM with HS 578T breast. Besides, the TGI in the test on NCI-H522 lung was below 0.0165 µM; in the test with COLO 205 colon, below 0.01 µM.

Turning to `Nc1c(N2CCOCC2)c(=O)nc2[nH]/c(=C\c3ccccc3O)c(=O)n12`, the TGI with MDA-MB-231 breast, in the test with ACHN renal, with M14 melanoma, in the test with OVCAR-5 ovarian, in the test with HS 578T breast and in the test with SK-OV-3 ovarian was above 100 µM each time. The TGI with NCI-H522 lung and in the test with COLO 205 colon was above 100 µM each time.

For the compound `CN(C)CCCNC(=O)N/N=C/c1ccccc1`, the TGI with OVCAR-3 ovarian, in the test on ACHN renal, with SK-OV-3 ovarian and in the test with NCI-H522 lung was above 100 µM each time.

For the compound `CCN(CC)C(=S)N/N=C(/c1ccccc1)c1ccccn1`, the TGI in the test with OVCAR-3 ovarian was 32.5 µM; with PC-3 prostate, above 100 µM; in the test on ACHN renal it was 5.39 µM; in the test with M14 melanoma, 0.794 µM; in the test with OVCAR-5 ovarian it was 22.9 µM; with HS 578T breast, above 100 µM. The TGI is 38.6 µM in the test on SK-OV-3 ovarian, above 100 µM with NCI-H522 lung and 0.0942 µM with COLO 205 colon.

Turning to `O=c1c2c3c(sc2nc2n1N=C(c1ccc(Br)cc1)CS2)CCCC3`, the TGI with OVCAR-3 ovarian, with PC-3 prostate, with MDA-MB-231 breast, with ACHN renal, in the test on M14 melanoma and in the test with OVCAR-5 ovarian was above 100 µM in each case. Also, the TGI in the test on SK-OV-3 ovarian, with NCI-H522 lung and with COLO 205 colon was above 100 µM each time.

Turning to `CC(C)(C)/C(O)=C\c1nc2cc(F)c(F)cc2[nH]c1=O`, the TGI with PC-3 prostate is above 100 µM; with MDA-MB-231 breast, 71.7 µM; in the test on ACHN renal, above 100 µM; in the test on M14 melanoma it was above 100 µM; with HS 578T breast it was above 100 µM; in the test with SK-OV-3 ovarian, above 100 µM. For the same compound, the TGI in the test on COLO 205 colon was above 100 µM.

`Cc1cc(S(=O)(=O)N=C2Nc3cccc4cccc(c34)N2)c(S)cc1Cl`: the TGI in the test on OVCAR-3 ovarian, in the test with PC-3 prostate, in the test on MDA-MB-231 breast, in the test with ACHN renal, with M14 melanoma and in the test with OVCAR-5 ovarian was above 100 µM in each case. For the same compound, the TGI in the test with HS 578T breast, in the test with NCI-H522 lung and in the test with COLO 205 colon was above 100 µM throughout.

As for `CCOC(=O)c1c(SCc2cc(=O)[nH]c(=O)[nH]2)n(-c2ccccc2)c(=S)n(-c2ccccc2)c1=O`, the TGI in the test on OVCAR-3 ovarian, with PC-3 prostate, in the test on MDA-MB-231 breast, in the test on ACHN renal, with M14 melanoma and with OVCAR-5 ovarian was above 100 µM each time. In the test with COLO 205 colon, this compound had a TGI above 100 µM.
